Test results as given in US8242087B2, “Phosphate modified nucleosides useful as substrates for polymerases and as antiviral agents” (priority 2007, dated 2012).

Key:
[1] = target: T1, HIV RT (Human immunodeficiency virus type 1 group M subtype B, UniProt P03366); experiment: Primer extension by HIV RT (P1/T3, P1/T5); format: biochemical, HIV-1; details: one hour, 500 μM
T1 construct: HIV RT polymerase was purchased from GE Healthcare; purchased GE Healthcare (Amersham Bioscience)
Description: (§1) A typical single nucleotide incorporation and primer extension assays using HIV RT polymerase was carried out similar to one described in the literature. HIV RT polymerase was purchased from GE Healthcare and was supplied as either 12 or 30 U/μL stock solution. The final concentration of HIV RT in a reaction mixture was 0.03-0.003 U/μL. A primer/template duplex mixture was prepared by combining appropriate amounts of a 5′-^33P-labeled primer (P1) and a template in 1:2 molar ratio to provide a 4× solution with 0.5 μM primer concentration. The polymerase reactions were carried out in a 5×RT buffer containing 250 mM TRIS.HCL, 250 mM KCl, 50 mM MgCl2, 2.5 mM spermidine, 50 mM DTT, pH 8.3. For the single nucleotide incorporation assay, a P1/T1 primer-template pair was used whereas the primer extension study was performed with P1/T3 and P1/T5 primer-template pairs.
Primer extension study with HIV RT and Therminator DNA polymerase was performed in a fashion similar to the single nucleotide incorporation experiments. Two sets of primer/template complexes were used: P1/T3 and P1/T5.

[2] = target: T2, HIV reverse transcriptase (HIV RT) (Human immunodeficiency virus type 1 group M subtype B, UniProt P03366); experiment: Single nucleotide incorporation by HIV RT, gel-based, P1/T1 (Examples 2-3); format: biochemical, HIV-1; details: same conditions (500 μM, 60 min)
T2 construct: HIV RT polymerase was purchased from GE Healthcare; purchased GE Healthcare (Amersham Bioscience)
Description: as §1
Briefly, a mixture containing 5 μL of the 4× primer/DNA duplex solution and 5 μL of 4× polymerase solution was pre-incubated at 37° C. for 2 minutes to ensure formation a DNA polymerase/DNA duplex complex. Simultaneously, 2× solutions of dNTP to provide final concentrations of 100 μM, 200 μM, 500 μM and 1 mM were also pre-incubated at 37° C. for 2 minutes as well. The polymerase reaction in a total volume of 20 μL was initiated by addition of 10 μL of the 2× dNTP solution to the DNA polymerase/DNA duplex mixture. The reactions were run at 37° C. and aliquots (2.5 μL) were removed at specified time points and mixed with 10 μL of a quenching buffer containing 80% formamide, 2 mM EDTA, 1×TBE. Quenched reactions were analyzed by loading 2 μL of a reaction sample onto a 20% denaturing polyacrylamide:gel (19:1 acrylamide:bisacrylamide, 7M urea, 0.4 mm×30 cm×40 cm) made in 1×TBE buffer (90 mM Tris-borate, 2 mM EDTA, pH 8.3). The gel was pre-equilibrated for 2 hours before loading and the reactions were run along with a tracking dye marker containing bromophenol blue (BB) and xylene cyanol (XC) until the BB dye had run ⅔ of the total gel length. For visualization, gels were scanned using a Cyclone Phosphoroimager.

[3] = target: T3, Therminator DNA polymerase (Thermococcus sp., UniProt Q56366, A485L/D141A/E143A); experiment: Single nucleotide incorporation by Therminator DNA polymerase; format: biochemical, (9° N-7) Thermococcus sp.; details: single nucleotide incorporation, P1/T1
T3 construct: purchased Westburg (NEB)
Description: In the case of Therminator DNA polymerase, the enzyme was obtained from Westburg (NEB) (2 U/μL) and the reactions were carried out in a 10× Thermopol reaction buffer containing 20 mM TRIS.HCl, 10 mM KCl, 2 mM MgSO4, 0.1% Triton X-100, pH 8.8. The final concentration of the Therminator DNA pol in the reaction mixture was 8.33×10^−4 U/μL. The polymerase reaction involving Therminator DNA polymerase or any other thermostable polymerase (Vent (exo^−), Taq DNA polymerase) was carried out in a similar way as the HIV RT reaction with some modifications. The dNTP solutions and the primer/template/DNA polymerase mixture solutions were topped with mineral oil (30-60 μL) and pre-incubated at 70° C. for 2 minutes. The polymerase reactions were performed at 70° C. as well.

[4] = target: T4, HIV-1 Reverse Transcriptase (Human immunodeficiency virus type 1 group M subtype B, UniProt P03366); experiment: Single incorporation into P1T1 by HIV-1 Reverse Transcriptase (Examples 6, 7, 9); format: biochemical
T4 construct: performed with the enzyme HIV-1 RT (Ambion, 10 U/μL stock solution); purchased Ambion
Description: HIV-1 Reverse Transcriptase serves, in the HIV-1 viral replication process, as a catalyst and uses deoxynucleotides as substrates. This polymerase is error-prone and thus has a high mutation rate. Here, we evaluated the capacity to incorporate a deoxyadenosine nucleoside into the primer-template complex P1T1 using HIV-1 RT, and some of the above described illustrative compounds of the invention, carrying different leaving groups, as substrates. The initial screening was carried out using a template with an overhang of one thymidine nucleotide followed by three non-pyrimidine bases (Table 1). Incorporation efficiency was analysed by the polyacrylamide gel-based single nucleotide incorporation assay.
End-labeled primer was annealed to its template by combining primer and template in a molar ratio of 1:2 and heating the mixture to 70° C. for 10 minutes followed by slow cooling to room temperature over a period of 1.5 hour. For the incorporation of 1, 2, 3, 4, 5 and 6, a series of 20 μL-batch reactions was performed with the enzyme HIV-1 RT (Ambion, 10 U/μL stock solution, specific activity 8.095 U/mg, concentration 1.2 mg/mL). The final mixture contained 125 nM primer template complex, RT buffer (250 mM Tris.HCl, 250 mM KCl, 50 mM MgCl2, 2.5 mM spermidine, 50 mM dithiothreitol (DTT); pH 8.3), 0.025 U/μL HIV-1 RT, and different concentrations of phosphoramidate or phosphodiester building blocks (1 mM, 500 μM, 200 μM and 100 μM respectively). In the case of the aromatic phosphate-modified nucleosides 23 and 24, the range of concentrations was limited to 1 mM. In the control reaction with the natural nucleotide, a 10 μM dATP concentration was used. The mixture was incubated at 37° C. and 2.5 μL aliquots were quenched after 5, 10, 20, 30, 60 and 120 minutes.

T3 sequence (Q56366 whole entry D141A/E143A/A485L): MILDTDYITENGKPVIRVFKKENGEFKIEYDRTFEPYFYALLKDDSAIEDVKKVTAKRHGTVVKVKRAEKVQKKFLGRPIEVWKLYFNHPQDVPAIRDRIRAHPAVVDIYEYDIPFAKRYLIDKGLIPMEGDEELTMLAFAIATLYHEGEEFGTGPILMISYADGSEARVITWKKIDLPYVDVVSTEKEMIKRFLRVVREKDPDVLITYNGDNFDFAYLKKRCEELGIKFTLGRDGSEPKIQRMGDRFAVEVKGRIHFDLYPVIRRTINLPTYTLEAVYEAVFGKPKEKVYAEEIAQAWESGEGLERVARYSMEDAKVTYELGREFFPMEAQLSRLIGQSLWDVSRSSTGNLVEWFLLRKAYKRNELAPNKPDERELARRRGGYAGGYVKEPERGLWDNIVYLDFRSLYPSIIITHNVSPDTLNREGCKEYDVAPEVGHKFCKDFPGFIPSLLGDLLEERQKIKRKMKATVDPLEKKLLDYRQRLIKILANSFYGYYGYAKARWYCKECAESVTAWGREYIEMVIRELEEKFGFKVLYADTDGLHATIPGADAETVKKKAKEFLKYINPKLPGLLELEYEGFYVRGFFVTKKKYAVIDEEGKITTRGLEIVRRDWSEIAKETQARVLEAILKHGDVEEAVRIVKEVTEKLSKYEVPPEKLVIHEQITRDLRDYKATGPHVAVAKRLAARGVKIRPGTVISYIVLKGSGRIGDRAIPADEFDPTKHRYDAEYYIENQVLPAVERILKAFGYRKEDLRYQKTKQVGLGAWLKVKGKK

## Nc1ncnc2c1ncn2[C@H]1C[C@H](O)[C@@H](COP(=O)(O)NCC2CO2)O1 (stereo partly drawn) [Compound 3, 2′-deoxy-adenosine-5′-glycidyl-phosphoramidate]
[1]
  primer strand extension efficiency: low efficiency
[2]
  incorporation, fold less efficient than Asp-dAMP: 6.5 fold
[3]
  incorporation as Therminator DNA polymerase substrate: act effectively as alternative substrates

## Nc1ncnc2c1ncn2[C@H]1C[C@H](O)[C@@H](COP(=O)(O)Nc2cc(C(=O)O)cc(C(=O)O)c2)O1 [Compound 23, 2′-deoxyadenosine-5′(5-aminoisophthalic acid) phosphoramidate]
[4]; 1 mM
  recognition as substrate: less well recognized as substrate

## Nc1ncnc2c1ncn2[C@H]1C[C@H](O)[C@@H](COP(=O)(O)Oc2ccc(C(=O)O)c(C(=O)O)c2)O1 [Compound 24, 2′-deoxyadenosine-5′-(4-hydroxy-phthalic acid) phosphodiester]
[4]; 2 hours, 1 mM concentration
  conversion to an n+1 strand: 13%

## Nc1ncnc2c1ncn2[C@H]1C[C@H](O)[C@@H](COP(=O)(O)OCC(=O)O)O1 [GA-dAMP, 2′-deoxyadenosine-5′-(glycolic acid) phosphodiester]
[4]; 500 μM
  n+1 formation: up to 68%
